Experimental data reported in US4904593A (priority 1986, dated 1990).
Where two headings read alike, the source gives them in different places.

Tests used:
purified esterase [1] = experiment: Hydrolysis activity of the esterase to substrates, pH-stat (Example 6, Table 1); type: biochemical, Bacillus sp. DC-1; conditions: 100 mM Tris-HCl pH 9.0, emulsified with 0.2% polyvinyl alcohol, ethyl butyrate = 100
Protocol: (§1) Also, the hydrolysis activities of the present esterase to choline ester, cholesterol ester, and thiol ester were determined.
(§2) In Table 1, the hydrolysis activity is expressed in relative activity (%) based on the hydrolysis activity of the present esterase to ethyl butyrate taken as 100. Each substrate was used after it was emulsified with 0.2% polyvinyl alcohol. In Table 2, hydrolysis activities to choline ester and cholesterol ester were observed by the use of the Cholinesterase B-test (Wako) and Free-Cholesterol B-test (Wako), respectively, and hydrolysis activity to thiol ester was based on increase in absorbance at 412 nm with a spectrophotometer in which glutathione, a standard substance, and 5,5'-dithiobis(2-nitrobenzoic acid) (DTNB) were employed. The activity is expressed in mole numbers of choline, cholesterol, and CoA to be liberated per minute.

purified esterase [2] = experiment: Hydrolysis activity to thiol ester, DTNB absorbance at 412 nm (Table 2); type: biochemical, Bacillus sp. DC-1; conditions: for Activity: substrate 50 μM, CoA liberated per minute; for Substrate specificity (esterase active or not): summary of properties, thiol esters
Protocol: as §1, §2

purified esterase [3] = experiment: Hydrolysis activity to cholesterol ester, Free-Cholesterol B-test (Table 2); type: biochemical, Bacillus sp. DC-1; conditions: substrate 1,300 μM; cholesterol liberated per minute
Protocol: as §1, §2

purified esterase [4] = type: biochemical, Bacillus sp. DC-1
[5] = tested on: esterase from Pseudomonas aeruginosa; conditions: cited from earlier work

Compound: CCCCCCCCCCCCCCCC(=O)OCC(CO)OC(=O)CCCCCCCCCCCCCCC (centres unmarked) [1,2-dipalmitoyl glycerol]
- Relative activity (%) (purified esterase [1]; substrate 5 mM): 0.2%

Compound: CCCCCCCCCCCCCCCC(=O)OCC(O)COC(=O)CCCCCCCCCCCCCCC [1,3-dipalmitoyl glycerol]
- Relative activity (%) (purified esterase [1]; substrate 2 mM): 0%

Compound: CCCCCCCCCCCCCCCC(=O)OCC(O)CO (centres unmarked) [1-palmitoyl glycerol]
- Relative activity (%) (purified esterase [1]; substrate 5 mM): 3.0%

Compound: CC(=O)SCCNC(=O)CCNC(=O)[C@H](O)C(C)(C)COP(=O)(O)OP(=O)(O)OC[C@H]1O[C@@H](n2cnc3c(N)ncnc32)[C@H](O)[C@@H]1OP(=O)(O)O [Acetyl CoA]
- Activity (purified esterase [2]): 0 nmol/min
- Substrate specificity (esterase active or not) (purified esterase [2]): not

Compound: CC(=O)O[C@H]1CC[C@@]2(C)C(=CC[C@H]3[C@@H]4CC[C@H]([C@H](C)CCCC(C)C)[C@@]4(C)CC[C@@H]32)C1 [Cholesterol acetate]
- Activity (purified esterase [3]): 0 nmol/min

Compound: CCCCC/C=C\C/C=C\CCCCCCCC(=O)O[C@H]1CC[C@@]2(C)C(=CC[C@H]3[C@@H]4CC[C@H]([C@H](C)CCCC(C)C)[C@@]4(C)CC[C@@H]32)C1 [Cholesterol linolate]
- Activity (purified esterase [3]): 0 nmol/min

Compound: CCCC(=O)OCC [Ethyl butyrate]
- Relative activity (%) (purified esterase [1]; substrate 20 mM): 100.0%

Compound: CCCCCCCCCCCCCCCC(=O)OC(C)C [Isopropyl palmitate]
- Relative activity (%) (purified esterase [1]; substrate 20 mM): 1.7%

Compound: O=S(=O)(F)Cc1ccccc1 [PMSF, phenylmethylsulfonylfluoride]
- Inactivation of the esterase (purified esterase [4]): Completely inactivated
- Remaining activity(%) (purified esterase [4]; 80 µM): 1.5%

Compound: CCCCCCCCCCCCCCCC(=O)SCCNC(=O)CCNC(=O)[C@H](O)C(C)(C)COP(=O)(O)OP(=O)(O)OC[C@H]1O[C@@H](n2cnc3c(N)ncnc32)[C@H](O)[C@@H]1OP(=O)(O)O [Palmitoyl CoA]
- Activity (purified esterase [2]): 5.4 nmol/min
- Substrate specificity (esterase active or not) (purified esterase [2]): Active

Compound: C[C@H](CCC(=O)O)[C@H]1CC[C@H]2[C@@H]3CC[C@@H]4C[C@H](O)CC[C@]4(C)[C@H]3C[C@H](O)[C@]12C [Sodium deoxycholate]
- Remaining activity(%) (purified esterase [4]): 76.2%
- Decrease of activity (purified esterase [4]; purified esterase, pH 9, 10 min, 1000 µM): about 25%

Compound: CCCCCCCCCCCCOS(=O)(=O)[O-].[Na+] [Sodium lauryl sulfate]
- Remaining activity(%) (purified esterase [4]): 32.2%
- Decrease of activity (inactivation) (purified esterase [4]; purified esterase, pH 9, 10 min, 5000 µM): about 70%
- Inactivation of the esterase from Pseudomonas aeruginosa [5]: not inactivated

Compound: CC(=O)OCC(COC(C)=O)OC(C)=O [Triacetin]
- Relative activity (%) (purified esterase [1]; substrate 20 mM): 14.1%

Compound: CCCC(=O)OCC(COC(=O)CCC)OC(=O)CCC [Tributylin]
- Relative activity (%) (purified esterase [1]; substrate 20 mM): 56.6%

Compound: CCCCCCCCCCCCCCCC(=O)OCC(COC(=O)CCCCCCCCCCCCCCC)OC(=O)CCCCCCCCCCCCCCC [Tripalmitin]
- Relative activity (%) (purified esterase [1]; substrate 6 mM): 1.1%

Compound: Tritonx-100
- Remaining activity(%) (purified esterase [4]): 101.5%

Compound: Tween-80
- Remaining activity(%) (purified esterase [4]): 130.8%
